Values of other authors as cited in paper PMC5051147, “Ester Hydrolysis Differentially Reduces Aconitine-Induced Anti-hypersensitivity and Acute Neurotoxicity: Involvement of Spinal Microglial Dynorphin Expression and Implications for Aconitum Processing” (Frontiers in Pharmacology, 2016).

How the values were obtained:
mice = system: mice; design: method as in Zheng et al., 1994; details: subcutaneous, ref Zheng et al., 1994; cited from earlier work
rats = system: rats; design: method as in Zheng et al., 1994; details: subcutaneous, ref Zheng et al., 1994; cited from earlier work
[1] = design: method as in Zheng et al., 1994; details: intracerebroventricular injection; ref Zheng et al., 1994; cited from earlier work
[2] = system: acetic acid and formalin tests; design: method as in Yu et al., 1996; details: systemic; ref Yu et al., 1996; cited from earlier work

Structure (SMILES)	ED50 relative to 3-acetylaconitine (times greater) (mice)	ED50 relative to 3-acetylaconitine (times greater) (rats)	Therapeutic index relative to 3-acetylaconitine [1]	Antinociception compared with analogues [2]
CCN1C[C@]2(COC)[C@H](OC(C)=O)C[C@H](OC)C34C1C([C@H](OC)[C@@H]32)[C@]1(O)[C@@H]2[C@H]4C[C@@](O)([C@@H]2OC(=O)c2ccccc2)[C@@H](OC)[C@@H]1OC(C)=O [3,15-diacetylbenzoylaconine]	12–16 times	25–30 times	three-fold higher	–
CCN1C[C@]2(COC)[C@H](O)C[C@H](OC)[C@]34C1[C@H]([C@H](OC)[C@H]23)[C@@]1(OC(C)=O)C[C@H](OC)[C@@]2(O)C[C@@H]4[C@@H]1[C@H]2OC(=O)c1ccc(OC)cc1 [yunaconitine]	–	–	–	greater antinociception than bulleyaconitine A and 3-acetylaconitine
